Earlier results, collected in US20200253945A1, “DELAYED RELEASE DEFERIPRONE TABLETS AND METHODS OF USING THE SAME” (Chiesi Farmaceutici S.p.A., priority 2017, published 2020).

Assays:
[1] = patients who begin therapy with deferiprone
[2] = in vivo

- patients with gastric distress [1]: 15-30%
- elimination half-life [2]: about 2 hours
SMILES: Cc1c(O)c(=O)ccn1C [deferiprone, Deferiprone]
